The source made the active and inactive calls.
Key:
ORF 73 = biological target: T1, ORF 73 (Human herpesvirus 8, UniProt O40947); test: inhibitors of C-LANA binding to LBS DNA, dose response, biochemical, fluorescence polarization, cherry-picked samples (AID 504725); set-up: species or system Human gammaherpesvirus 8;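 also: fluorescence polarization of a labeled DNA duplex reporting LANA DNA binding; potency is for inhibitors that block LANA binding to the DNA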
T1 sequence (O40947 whole entry): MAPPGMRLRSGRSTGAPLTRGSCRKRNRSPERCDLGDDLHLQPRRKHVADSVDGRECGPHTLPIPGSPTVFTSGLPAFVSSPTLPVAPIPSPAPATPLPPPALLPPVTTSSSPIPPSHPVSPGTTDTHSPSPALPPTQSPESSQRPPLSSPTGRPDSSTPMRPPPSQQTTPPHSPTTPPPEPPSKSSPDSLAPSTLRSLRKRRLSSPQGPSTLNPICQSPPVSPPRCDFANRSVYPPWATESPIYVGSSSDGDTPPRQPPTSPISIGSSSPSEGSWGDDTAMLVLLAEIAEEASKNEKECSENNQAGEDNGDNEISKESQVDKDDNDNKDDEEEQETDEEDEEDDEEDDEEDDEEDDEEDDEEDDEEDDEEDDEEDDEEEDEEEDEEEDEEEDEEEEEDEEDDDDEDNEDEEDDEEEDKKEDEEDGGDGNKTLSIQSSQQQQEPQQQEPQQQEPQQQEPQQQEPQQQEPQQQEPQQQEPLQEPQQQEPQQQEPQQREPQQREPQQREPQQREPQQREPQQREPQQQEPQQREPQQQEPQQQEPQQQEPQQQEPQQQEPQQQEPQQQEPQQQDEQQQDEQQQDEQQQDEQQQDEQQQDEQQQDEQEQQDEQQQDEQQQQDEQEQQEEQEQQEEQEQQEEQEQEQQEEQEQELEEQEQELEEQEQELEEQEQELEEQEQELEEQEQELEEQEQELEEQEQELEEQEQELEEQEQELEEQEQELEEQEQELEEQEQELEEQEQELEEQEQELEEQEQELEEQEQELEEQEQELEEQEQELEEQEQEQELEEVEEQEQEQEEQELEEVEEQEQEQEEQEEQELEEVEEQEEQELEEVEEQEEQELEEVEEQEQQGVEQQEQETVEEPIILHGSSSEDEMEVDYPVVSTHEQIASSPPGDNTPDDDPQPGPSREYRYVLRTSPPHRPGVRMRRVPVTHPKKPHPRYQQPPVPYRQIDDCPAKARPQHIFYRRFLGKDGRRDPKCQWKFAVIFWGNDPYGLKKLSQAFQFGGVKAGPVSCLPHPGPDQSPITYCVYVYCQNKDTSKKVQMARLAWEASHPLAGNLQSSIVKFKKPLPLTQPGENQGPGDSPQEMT

SUMO-activating enzyme [1] = biological target: T2, SUMO-activating enzyme (Homo sapiens, UniProt Q9UBT2); test: inhibitors of in vitro SUMOylation cascade, primary screen, biochemical, HTRF, uHTS (AID 2006); assay type: protein-complex assay
SUMO-activating enzyme [2] = biological target: T2, SUMO-activating enzyme; test: SUMOylation inhibitor hit validation, confirmation, SUMOylation inhibitor project, biochemical, AlphaScreen (AID 2018); assay type: functional
[3] = biological target: Eukaryotic translation initiation factor 4H (Homo sapiens, UniProt Q15056); test: human eIF4H binding inhibitors, primary screen, translation initiation inhibitor project, biochemical, uHTS, fluorescence polarization (AID 2012)
[4] = biological target: Polyadenylate-binding protein 1 (Homo sapiens, UniProt P11940); test: PABP poly(A) RNA binding inhibitors, primary screen, biochemical, fluorescence polarization, uHTS (AID 2014)
[5] = A cytotoxicity screen of small molecule inhibitors of the PhoP region in Salmonella typhi identified in the primary screen. [Related pubchem assays: 1850, 1864, 1985 ]; assay type: functional
Aspartyl aminopeptidase = biological target: T3, Aspartyl aminopeptidase (Plasmodium falciparum 3D7, UniProt Q8I2J3); test: Counterscreen for inhibitors of M1 and M17 aminopeptidases: QFRET-based biochemical high throughput dose response assay for inhibitors of the Plasmodium falciparum M18 Aspartyl Aminopeptidase (PFM18AAP). [Related PubChem assays: 1619 (Screening assay (M17LAP inhibitors).), 1445 (Screening assay (M1AAP inhibitors).)]
T3 sequence (Q8I2J3 whole entry): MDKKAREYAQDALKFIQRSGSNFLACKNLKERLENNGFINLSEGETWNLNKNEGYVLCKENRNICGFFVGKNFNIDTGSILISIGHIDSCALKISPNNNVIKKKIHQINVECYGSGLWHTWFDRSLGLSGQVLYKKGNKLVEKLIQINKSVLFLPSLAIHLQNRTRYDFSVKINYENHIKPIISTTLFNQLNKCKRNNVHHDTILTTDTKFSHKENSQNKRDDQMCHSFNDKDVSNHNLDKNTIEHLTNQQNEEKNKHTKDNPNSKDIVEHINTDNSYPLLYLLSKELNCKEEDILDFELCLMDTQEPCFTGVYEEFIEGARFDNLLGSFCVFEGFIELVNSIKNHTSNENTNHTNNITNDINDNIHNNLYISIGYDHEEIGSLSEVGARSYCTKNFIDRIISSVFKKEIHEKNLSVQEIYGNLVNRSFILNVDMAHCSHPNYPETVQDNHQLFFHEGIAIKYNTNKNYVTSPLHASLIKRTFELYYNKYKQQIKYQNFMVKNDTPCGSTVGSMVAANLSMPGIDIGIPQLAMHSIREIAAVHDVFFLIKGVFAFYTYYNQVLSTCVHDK

Leucine aminopeptidase = biological target: T4, Leucine aminopeptidase (Plasmodium falciparum 3D7, UniProt Q8IL11); test: P. falciparum M17LAP inhibitors, primary screen, biochemical, fluorogenic H-Leu-NHMec substrate, 1536-well (AID 1619); assay type: functional
T4 sequence (Q8IL11 whole entry): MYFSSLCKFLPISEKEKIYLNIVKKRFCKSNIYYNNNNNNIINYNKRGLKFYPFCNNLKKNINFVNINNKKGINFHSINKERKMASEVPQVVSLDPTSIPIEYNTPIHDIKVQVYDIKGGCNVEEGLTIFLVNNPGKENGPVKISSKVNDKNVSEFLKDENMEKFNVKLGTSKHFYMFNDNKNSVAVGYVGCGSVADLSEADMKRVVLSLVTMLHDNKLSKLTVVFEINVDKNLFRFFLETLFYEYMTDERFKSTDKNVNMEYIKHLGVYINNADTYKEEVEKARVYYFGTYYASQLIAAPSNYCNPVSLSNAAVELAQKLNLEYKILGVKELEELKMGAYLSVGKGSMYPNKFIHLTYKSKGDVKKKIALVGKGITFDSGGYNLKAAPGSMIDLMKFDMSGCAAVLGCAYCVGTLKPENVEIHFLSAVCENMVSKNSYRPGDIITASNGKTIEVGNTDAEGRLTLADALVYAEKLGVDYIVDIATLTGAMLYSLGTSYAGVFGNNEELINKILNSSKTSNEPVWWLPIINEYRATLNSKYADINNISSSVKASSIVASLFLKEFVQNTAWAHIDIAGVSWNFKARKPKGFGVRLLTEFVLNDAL

Procathepsin L = Procathepsin L (Homo sapiens, UniProt P07711); test: cathepsin L inhibitors, dose response, counter-screen for M1/M17 aminopeptidase inhibitor project, biochemical, QFRET, 1536-well (AID 2214)
HEK293 = test: inhibitors of LMP1-driven NF-kB reporter, dose response, cell-based, HEK293, luciferase, cherry-pick (AID 588343); assay type: functional; conditions: Homo sapiens
HT-1080 = test: cytotoxicity in HT1080 fibrosarcoma cells, cell-based, fluorescence readout (AID 620); assay type: functional; conditions: Homo sapiens
[6] = biological target: Luciferin 4-monooxygenase (Photinus pyralis, UniProt P08659); test: Counter Screen for Luciferase-based Assay Positives. [Related pubchem assays: 620, 618, 411 ]
[7] = inhibitors of intracellular T. cruzi replication, confirmation, NIH3T3 host cells, beta-gal luminescence (AID 2044); assay type: functional, cell-based;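 also: intracellular parasites grown in NIH/3T3 mouse fibroblasts as host cells; luminescent beta-galactosidase reporter signal from transgenic T. cruzi replicating inside host cells; inhibitors lower the luminescence signal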
[8] = cytotoxicity toward NIH3T3 fibroblasts, dose response, counter-screen, cell-based, ATP luminescence, mouse fibroblasts (AID 2010); assay type: functional;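 also: cells exposed to compound for about 90 hours before reading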
[9] = biological target: T5, Acyl-homoserine lactone acylase PvdQ (Pseudomonas aeruginosa (strain LESB58), UniProt Q9I194); test: P. aeruginosa PvdQ acylase inhibitors, dose response, biochemical, fluorescence, plate reader and imaging, cherry-picks (AID 493231)
T5 sequence (Q9I194 whole entry): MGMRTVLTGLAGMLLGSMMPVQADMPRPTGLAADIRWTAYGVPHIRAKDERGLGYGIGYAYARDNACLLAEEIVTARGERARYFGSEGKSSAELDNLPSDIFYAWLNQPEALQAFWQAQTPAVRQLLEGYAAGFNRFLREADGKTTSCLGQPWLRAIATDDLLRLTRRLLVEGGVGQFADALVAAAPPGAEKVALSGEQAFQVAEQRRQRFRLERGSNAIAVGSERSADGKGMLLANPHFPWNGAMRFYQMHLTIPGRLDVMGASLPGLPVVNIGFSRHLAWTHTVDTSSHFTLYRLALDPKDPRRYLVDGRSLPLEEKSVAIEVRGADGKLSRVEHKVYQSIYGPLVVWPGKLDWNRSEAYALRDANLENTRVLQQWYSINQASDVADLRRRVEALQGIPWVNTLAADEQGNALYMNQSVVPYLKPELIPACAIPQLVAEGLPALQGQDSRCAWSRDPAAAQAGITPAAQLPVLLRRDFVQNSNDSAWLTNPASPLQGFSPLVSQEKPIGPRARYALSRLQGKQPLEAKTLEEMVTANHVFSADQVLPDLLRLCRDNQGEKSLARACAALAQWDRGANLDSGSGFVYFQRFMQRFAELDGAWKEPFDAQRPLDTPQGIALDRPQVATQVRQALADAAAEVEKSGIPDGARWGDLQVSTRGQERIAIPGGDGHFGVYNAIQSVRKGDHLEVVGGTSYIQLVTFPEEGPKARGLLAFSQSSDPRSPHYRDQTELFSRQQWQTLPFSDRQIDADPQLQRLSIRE

[10] = biological target: T6, Ubiquitin-conjugating enzyme E2 N (Homo sapiens, UniProt P61088); assay type: functional;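 also: Dose-response confirmation in a TR-FRET assay detecting UBC13-driven polyubiquitin chain formation, inhibition measured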
T6 sequence (P61088 whole entry): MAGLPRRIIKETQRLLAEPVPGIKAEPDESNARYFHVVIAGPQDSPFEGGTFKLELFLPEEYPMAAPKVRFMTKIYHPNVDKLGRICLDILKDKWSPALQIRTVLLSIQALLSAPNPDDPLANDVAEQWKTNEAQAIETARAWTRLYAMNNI

T2 sequence (Q9UBE0 whole entry): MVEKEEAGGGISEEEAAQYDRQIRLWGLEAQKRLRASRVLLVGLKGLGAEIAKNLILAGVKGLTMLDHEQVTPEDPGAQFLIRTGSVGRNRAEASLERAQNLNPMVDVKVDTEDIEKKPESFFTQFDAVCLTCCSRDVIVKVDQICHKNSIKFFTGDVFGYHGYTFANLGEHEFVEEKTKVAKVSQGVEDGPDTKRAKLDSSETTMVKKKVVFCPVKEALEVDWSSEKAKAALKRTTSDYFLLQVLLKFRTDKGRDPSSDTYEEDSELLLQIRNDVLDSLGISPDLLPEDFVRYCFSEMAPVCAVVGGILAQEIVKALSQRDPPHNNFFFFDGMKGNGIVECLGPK
T2 sequence (Q9UBT2 whole entry): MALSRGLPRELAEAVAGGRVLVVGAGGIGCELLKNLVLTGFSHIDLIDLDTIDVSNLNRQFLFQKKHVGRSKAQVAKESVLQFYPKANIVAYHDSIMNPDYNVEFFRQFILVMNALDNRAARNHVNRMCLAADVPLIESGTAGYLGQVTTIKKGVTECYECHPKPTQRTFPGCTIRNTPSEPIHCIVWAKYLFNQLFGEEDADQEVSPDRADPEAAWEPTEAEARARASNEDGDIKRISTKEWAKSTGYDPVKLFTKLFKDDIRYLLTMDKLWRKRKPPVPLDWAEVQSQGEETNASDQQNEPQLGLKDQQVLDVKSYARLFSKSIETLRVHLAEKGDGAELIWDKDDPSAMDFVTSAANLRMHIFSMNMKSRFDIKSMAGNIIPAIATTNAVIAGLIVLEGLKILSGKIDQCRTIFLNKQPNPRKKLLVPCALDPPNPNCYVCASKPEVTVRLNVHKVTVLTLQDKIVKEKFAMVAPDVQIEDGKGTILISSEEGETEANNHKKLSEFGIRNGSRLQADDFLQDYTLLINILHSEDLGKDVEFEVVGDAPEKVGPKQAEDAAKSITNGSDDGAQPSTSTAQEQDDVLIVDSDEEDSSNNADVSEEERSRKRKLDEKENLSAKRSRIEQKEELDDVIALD
Sequence of Luciferin 4-monooxygenase (P08659 whole entry): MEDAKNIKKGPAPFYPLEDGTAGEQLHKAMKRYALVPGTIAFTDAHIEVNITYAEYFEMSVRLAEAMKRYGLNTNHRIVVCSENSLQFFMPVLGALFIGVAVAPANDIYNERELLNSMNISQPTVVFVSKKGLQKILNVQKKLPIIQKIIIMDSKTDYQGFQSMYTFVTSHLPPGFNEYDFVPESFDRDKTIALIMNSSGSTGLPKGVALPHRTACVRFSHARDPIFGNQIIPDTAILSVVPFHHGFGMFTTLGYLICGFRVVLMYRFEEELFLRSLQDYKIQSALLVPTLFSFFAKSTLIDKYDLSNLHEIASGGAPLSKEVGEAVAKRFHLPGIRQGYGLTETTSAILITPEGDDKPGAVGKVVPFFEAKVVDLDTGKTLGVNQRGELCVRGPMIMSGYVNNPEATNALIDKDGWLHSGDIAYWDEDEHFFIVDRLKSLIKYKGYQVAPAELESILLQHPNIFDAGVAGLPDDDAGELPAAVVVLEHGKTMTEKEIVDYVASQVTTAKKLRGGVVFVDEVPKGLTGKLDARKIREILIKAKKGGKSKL
Sequence of Procathepsin L (P07711 whole entry): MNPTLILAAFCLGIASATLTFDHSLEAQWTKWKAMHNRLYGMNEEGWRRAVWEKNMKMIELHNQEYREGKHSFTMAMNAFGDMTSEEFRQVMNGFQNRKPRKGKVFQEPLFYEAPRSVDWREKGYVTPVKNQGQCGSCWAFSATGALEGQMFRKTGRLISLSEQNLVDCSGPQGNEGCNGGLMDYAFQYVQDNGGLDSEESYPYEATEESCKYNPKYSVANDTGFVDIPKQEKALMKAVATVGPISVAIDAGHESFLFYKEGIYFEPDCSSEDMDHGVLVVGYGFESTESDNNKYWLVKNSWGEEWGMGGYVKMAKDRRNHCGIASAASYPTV
Sequence of Polyadenylate-binding protein 1 (P11940 whole entry): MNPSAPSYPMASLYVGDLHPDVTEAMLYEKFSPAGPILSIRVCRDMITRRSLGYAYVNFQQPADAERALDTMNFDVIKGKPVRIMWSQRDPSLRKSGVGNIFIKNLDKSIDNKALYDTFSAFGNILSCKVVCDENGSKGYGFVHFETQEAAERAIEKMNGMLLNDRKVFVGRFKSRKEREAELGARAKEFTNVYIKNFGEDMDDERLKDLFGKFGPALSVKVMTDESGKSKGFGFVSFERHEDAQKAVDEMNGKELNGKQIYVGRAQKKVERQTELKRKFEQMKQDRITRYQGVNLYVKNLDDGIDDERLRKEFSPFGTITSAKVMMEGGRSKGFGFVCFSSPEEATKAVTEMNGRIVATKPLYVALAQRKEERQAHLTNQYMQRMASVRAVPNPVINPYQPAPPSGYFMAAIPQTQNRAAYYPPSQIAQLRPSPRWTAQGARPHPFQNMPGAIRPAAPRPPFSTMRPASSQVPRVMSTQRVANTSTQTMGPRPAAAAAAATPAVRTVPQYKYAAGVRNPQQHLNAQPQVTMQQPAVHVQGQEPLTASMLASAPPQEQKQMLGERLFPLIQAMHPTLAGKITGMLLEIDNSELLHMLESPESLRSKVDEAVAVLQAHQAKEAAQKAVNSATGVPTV

COc1cc2c(cc1OC)-c1cc3ccc4c(c3c[n+]1CC2)OCO4
AC50 (ORF 73): 20.5 µM (active)
IC50 (SUMO-activating enzyme [1]): 8.68 µM (active)
IC50 (SUMO-activating enzyme [2]): 4.17 µM (active)

O=C(NC(Cc1ccccc1)C(=O)Oc1ccc2c(C(F)(F)F)cc(=O)oc2c1)OCc1ccccc1 (stereo unspecified)
IC50 [3]: > 100 µM (inactive)
IC50 [4]: > 100 µM (inactive)

CNc1nc(SC)n(C)c(=O)c1N=O
EC50 [5]: > 50 µM (active)

COC(=O)c1c(-c2ccc(C)cc2)csc1NC(=O)C1CC=CCC1C(=O)O (stereo unspecified)
IC50 (Aspartyl aminopeptidase): > 73.5 µM (not active)
IC50 (Leucine aminopeptidase): 1.2 µM (active)
IC50 (Procathepsin L): > 59.6 µM (not active)

c1ccc(OCCSc2nnc3sc4ccccc4n23)cc1
AC50 (HEK293): 1.29 µM (active)
EC50 (HT-1080): 14.8 µM (active)
EC50 [6]: > 100 µM (not active)

O=C(NCC1CC1)c1cc([N+](=O)[O-])cc([N+](=O)[O-])c1
EC50 [7]: 0.622 µM (active)
EC50 [8]: > 60 µM (not active)
AC50 [9]: 3.55 µM (active)

O=S(=O)(c1ccc(NC(=S)NN=C(C2CC2)C2CC2)cc1)N1CCOCC1
IC50 [10]: > 20 µM (inactive)
